Results reported in the NIST ThermoML archive (doi:10.1016/j.jct.2016.10.009).
Numbers after ± are expanded uncertainties.

Details: Liquid, Vibrating tube method

CCC(C)O (configuration not stated) [butan-2-ol]
mass density [kg/m3]
Details	293.15 K	298.15 K	313.15 K	333.15 K	353.19 K	373.24 K	393.28 K
100 kPa	806.7 ± 0.7	802.6 ± 0.7	789.6 ± 0.7	770.8 ± 0.7	750.3 ± 0.7	–	–
1000 kPa	807.4 ± 0.7	803.3 ± 0.7	790.3 ± 0.7	771.8 ± 0.7	751.4 ± 0.7	729.1 ± 0.7	704.8 ± 0.7
5000 kPa	810.4 ± 0.7	806.4 ± 0.7	793.7 ± 0.7	775.7 ± 0.7	756 ± 0.7	734.5 ± 0.7	711.3 ± 0.7
10000 kPa	814 ± 0.7	810.1 ± 0.7	797.8 ± 0.7	780.3 ± 0.7	761.3 ± 0.7	740.8 ± 0.7	718.8 ± 0.7
15000 kPa	817.4 ± 0.7	813.7 ± 0.7	801.6 ± 0.7	784.7 ± 0.7	766.4 ± 0.8	746.6 ± 0.8	725.6 ± 0.8
20000 kPa	820.7 ± 0.7	817 ± 0.7	805.3 ± 0.8	788.9 ± 0.8	771 ± 0.8	751.9 ± 0.8	731.7 ± 0.8
25000 kPa	823.9 ± 0.8	820.2 ± 0.8	808.6 ± 0.8	792.7 ± 0.8	775.4 ± 0.8	757 ± 0.8	737.4 ± 0.8
30000 kPa	826.9 ± 0.8	823.4 ± 0.8	812.1 ± 0.8	796.4 ± 0.8	779.5 ± 0.8	761.6 ± 0.8	742.7 ± 0.8
35000 kPa	829.8 ± 0.8	826.4 ± 0.8	815.3 ± 0.8	800 ± 0.8	783.5 ± 0.8	766.1 ± 0.8	747.8 ± 0.8
40000 kPa	832.7 ± 0.8	829.2 ± 0.8	818.4 ± 0.8	803.5 ± 0.8	787.2 ± 0.8	770.3 ± 0.8	752.5 ± 0.9
45000 kPa	835.4 ± 0.8	832 ± 0.8	821.3 ± 0.8	806.6 ± 0.8	790.8 ± 0.8	774.4 ± 0.9	757 ± 0.9
50000 kPa	838.1 ± 0.8	834.7 ± 0.8	824.3 ± 0.8	809.8 ± 0.8	794.4 ± 0.9	778.1 ± 0.9	761.2 ± 0.9
55000 kPa	840.6 ± 0.8	837.4 ± 0.8	827.1 ± 0.8	812.8 ± 0.9	797.7 ± 0.9	781.8 ± 0.9	765.4 ± 0.9
60000 kPa	843.2 ± 0.8	839.9 ± 0.8	829.8 ± 0.9	815.8 ± 0.9	801 ± 0.9	785.3 ± 0.9	769.2 ± 0.9
65000 kPa	845.6 ± 0.8	842.4 ± 0.8	832.5 ± 0.9	818.7 ± 0.9	804.1 ± 0.9	788.8 ± 0.9	772.9 ± 1
70000 kPa	848 ± 0.9	844.8 ± 0.9	835 ± 0.9	821.4 ± 0.9	807.2 ± 0.9	792.1 ± 1	776.6 ± 1
80000 kPa	852.6 ± 0.9	849.5 ± 0.9	839.9 ± 0.9	826.8 ± 0.9	812.9 ± 1	798.4 ± 1	783.4 ± 1
90000 kPa	857.1 ± 0.9	854.1 ± 0.9	844.7 ± 0.9	831.9 ± 1	818.3 ± 1	804.3 ± 1	789.8 ± 1.1
100000 kPa	861.2 ± 0.9	858.3 ± 0.9	849.1 ± 1	836.7 ± 1	823.5 ± 1	809.8 ± 1.1	795.8 ± 1.1
110000 kPa	865.3 ± 0.9	862.4 ± 1	853.5 ± 1	841.3 ± 1	828.5 ± 1.1	815.1 ± 1.1	801.5 ± 1.1
120000 kPa	869.2 ± 1	866.3 ± 1	857.6 ± 1	845.6 ± 1	833.1 ± 1.1	820.1 ± 1.1	806.8 ± 1.2
130000 kPa	873 ± 1	870.1 ± 1	861.5 ± 1	849.9 ± 1.1	837.6 ± 1.1	824.9 ± 1.2	811.9 ± 1.2
140000 kPa	876.6 ± 1	873.9 ± 1	865.4 ± 1	853.9 ± 1.1	842 ± 1.1	829.5 ± 1.2	816.8 ± 1.2

CC(C)OC(C)C [diisopropyl ether]
mass density [kg/m3]
Details	293.15 K	298.15 K	313.15 K	333.15 K	353.19 K	373.24 K	393.28 K
100 kPa	723.5 ± 0.7	718.3 ± 0.7	702.4 ± 0.7	680.5 ± 0.7	–	–	–
1000 kPa	724.6 ± 0.7	719.6 ± 0.7	703.8 ± 0.7	682.1 ± 0.7	659.5 ± 0.7	635.6 ± 0.7	609.5 ± 0.7
5000 kPa	729.4 ± 0.7	724.5 ± 0.7	709.4 ± 0.7	688.9 ± 0.7	667.6 ± 0.7	645.5 ± 0.7	622.1 ± 0.8
10000 kPa	734.9 ± 0.7	730.2 ± 0.7	715.8 ± 0.7	696.4 ± 0.8	676.5 ± 0.8	656.1 ± 0.8	635 ± 0.8
15000 kPa	740 ± 0.8	735.6 ± 0.8	721.7 ± 0.8	703.2 ± 0.8	684.4 ± 0.8	665.3 ± 0.8	645.8 ± 0.8
20000 kPa	744.8 ± 0.8	740.5 ± 0.8	727.2 ± 0.8	709.4 ± 0.8	691.5 ± 0.8	673.5 ± 0.8	655.2 ± 0.8
25000 kPa	749.4 ± 0.8	745.2 ± 0.8	732.1 ± 0.8	715.1 ± 0.8	698 ± 0.8	680.8 ± 0.8	663.5 ± 0.8
30000 kPa	753.7 ± 0.8	749.6 ± 0.8	737.1 ± 0.8	720.5 ± 0.8	704 ± 0.8	687.6 ± 0.9	671.1 ± 0.9
35000 kPa	757.7 ± 0.8	753.7 ± 0.8	741.6 ± 0.8	725.6 ± 0.9	709.7 ± 0.9	693.8 ± 0.9	677.9 ± 0.9
40000 kPa	761.6 ± 0.8	757.8 ± 0.9	745.9 ± 0.9	730.3 ± 0.9	714.8 ± 0.9	699.6 ± 0.9	684.3 ± 0.9
45000 kPa	765.3 ± 0.9	761.6 ± 0.9	750 ± 0.9	734.8 ± 0.9	719.7 ± 0.9	705 ± 0.9	690.2 ± 1
50000 kPa	768.9 ± 0.9	765.2 ± 0.9	753.9 ± 0.9	739.1 ± 0.9	724.6 ± 0.9	710.1 ± 1	695.8 ± 1
55000 kPa	772.4 ± 0.9	768.8 ± 0.9	757.7 ± 0.9	743.1 ± 1	728.9 ± 1	714.9 ± 1	701.1 ± 1
60000 kPa	775.7 ± 0.9	772.2 ± 0.9	761.3 ± 1	747.1 ± 1	733.2 ± 1	719.5 ± 1	705.9 ± 1.1
65000 kPa	778.9 ± 1	775.4 ± 1	764.8 ± 1	750.9 ± 1	737.2 ± 1	723.9 ± 1.1	710.6 ± 1.1
70000 kPa	782 ± 1	778.6 ± 1	768.1 ± 1	754.4 ± 1	741.1 ± 1.1	728.1 ± 1.1	715.2 ± 1.1
80000 kPa	787.9 ± 1	784.6 ± 1	774.4 ± 1	761.3 ± 1.1	748.4 ± 1.1	735.9 ± 1.1	723.5 ± 1.2
90000 kPa	793.5 ± 1.1	790.3 ± 1.1	780.5 ± 1.1	767.7 ± 1.1	755.4 ± 1.2	743.2 ± 1.2	731.3 ± 1.2
100000 kPa	798.8 ± 1.1	795.7 ± 1.1	786.1 ± 1.1	773.7 ± 1.2	761.6 ± 1.2	750 ± 1.2	738.4 ± 1.3
110000 kPa	803.9 ± 1.1	800.8 ± 1.1	791.4 ± 1.2	779.4 ± 1.2	767.8 ± 1.3	756.3 ± 1.3	745.3 ± 1.3
120000 kPa	808.7 ± 1.2	805.6 ± 1.2	796.5 ± 1.2	784.7 ± 1.3	773.4 ± 1.3	762.3 ± 1.3	751.4 ± 1.4
130000 kPa	813.2 ± 1.2	810.3 ± 1.2	801.4 ± 1.3	789.9 ± 1.3	778.8 ± 1.3	768 ± 1.4	757.4 ± 1.4
140000 kPa	817.6 ± 1.2	814.6 ± 1.3	806 ± 1.3	794.8 ± 1.3	784 ± 1.4	773.3 ± 1.4	763.1 ± 1.5
